26 molecules from PubChem BioAssay AID330 (DTP/NCI, 2004) can be followed below.

Several values for one entry are separate records, joined by “and”; a condition that tells them apart may be missing. Identical values can stand only once. Inconclusive results and toxic doses are left out.

The subject of the test is P388 leukemia ip, CD2F1 mice, survival T/C. In words: NCI In Vivo Anticancer Drug Screen. Data for tumor model P388 Leukemia (intraperitoneal) in CD2F1 (CDF1) mice. To be noted: endpoint: median survival time, higher = longer survival. An outline of the steps:
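Mice carrying the transplanted tumor received test compound or vehicle. Survival was recorded in each group, and the value is the treated-group measurement divided by that of the vehicle-treated control group.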

[1] abbreviates: dose: 25.0 mg/kg/injection, schedule: Q01DX009 (ip), vehicle: saline.
[2] abbreviates: dose: 50.0 mg/kg/injection, schedule: Q01DX009 (ip), vehicle: saline.
[3] abbreviates: dose: 100.0 mg/kg/injection, schedule: Q01DX009 (ip), vehicle: saline.
Where [4] appears, read: dose: 200.0 mg/kg/injection, schedule: Q01DX009 (ip), vehicle: saline.
Where [5] appears, read: dose: 50.0 mg/kg/injection, schedule: Q01DX005 (ip), vehicle: Klucel (hydroxypropylcellulose) (HPC).
[6] abbreviates: dose: 100.0 mg/kg/injection, schedule: Q01DX005 (ip), vehicle: Klucel (hydroxypropylcellulose) (HPC).
Setting [7] is: dose: 200.0 mg/kg/injection, schedule: Q01DX005 (ip), vehicle: Klucel (hydroxypropylcellulose) (HPC).
Setting [8] is: dose: 50.0 mg/kg/injection, schedule: Q01DX005 (ip), vehicle: saline with Tween-80.
The mark [9] stands for this setting: dose: 100.0 mg/kg/injection, schedule: Q01DX005 (ip), vehicle: saline with Tween-80.
The mark [10] stands for this setting: dose: 200.0 mg/kg/injection, schedule: Q01DX005 (ip), vehicle: saline with Tween-80.
Where [11] appears, read: dose: 25.0 mg/kg/injection, schedule: Q01DX009 (ip), vehicle: saline with Tween-80.
Where [12] appears, read: dose: 50.0 mg/kg/injection, schedule: Q01DX009 (ip), vehicle: saline with Tween-80.
[13] abbreviates: dose: 100.0 mg/kg/injection, schedule: Q01DX009 (ip), vehicle: saline with Tween-80.
Setting [14] is: dose: 25.0 mg/kg/injection, schedule: Q04DX003 (ip), vehicle: saline.
The mark [15] stands for this setting: dose: 50.0 mg/kg/injection, schedule: Q04DX003 (ip), vehicle: saline.
Where [16] appears, read: dose: 100.0 mg/kg/injection, schedule: Q04DX003 (ip), vehicle: saline.
Where [17] appears, read: dose: 6.25 mg/kg/injection, schedule: Q01DX009 (ip), vehicle: saline with Tween-80.
[18] abbreviates: dose: 12.5 mg/kg/injection, schedule: Q01DX009 (ip), vehicle: saline with Tween-80.
The mark [19] stands for this setting: dose: 200.0 mg/kg/injection, schedule: Q01DX009 (ip), vehicle: saline with Tween-80.
[20] abbreviates: dose: 60.0 mg/kg/injection, schedule: Q01DX005 (ip), vehicle: saline with Tween-80.
The mark [21] stands for this setting: dose: 120.0 mg/kg/injection, schedule: Q01DX005 (ip), vehicle: saline with Tween-80.
[22] abbreviates: dose: 60.0 mg/kg/injection, schedule: Q01DX005 (ip), vehicle: Klucel + Tween-80.
[23] abbreviates: dose: 120.0 mg/kg/injection, schedule: Q01DX005 (ip), vehicle: Klucel + Tween-80.

As for `COC(=O)C(N)CSCSCc1ccccc1` (configuration not stated), the T/C runs as follows: (dose: 3.13 mg/kg/injection, schedule: Q01DX009 (ip), vehicle: water) 90 % of control; (dose: 6.25 mg/kg/injection, schedule: Q01DX009 (ip), vehicle: water) 90 % of control; (dose: 12.5 mg/kg/injection, schedule: Q01DX009 (ip), vehicle: water) 93 % of control; under setting [1], 100 % of control; (dose: 25.0 mg/kg/injection, schedule: Q01DX009 (ip), vehicle: water) 90 % of control; under setting [2], 98 % of control. For the same molecule, the T/C is, setting by setting: (dose: 50.0 mg/kg/injection, schedule: Q01DX009 (ip), vehicle: water) 90 % of control; under setting [3], 101 % of control.

`COc1cc(C2C3=C(CC(C)(C)CC3=O)N(CC(=O)O)C3=C2C(=O)CC(C)(C)C3)ccc1O`: the T/C under setting [2] is 95 % of control, the T/C under setting [3] is 102 % of control and the T/C under setting [4] is 113 % of control.

`CCN(CC)P1(=O)OC(c2ccccc2)=CCN1c1ccc(OC)cc1` (configuration not stated): the T/C under setting [5] was 102 % of control, the T/C under setting [6] is 110 % of control and the T/C under setting [7] is 103 % of control.

As to `C=C(C)C1(C(=O)OCC(Cl)(Cl)Cl)NC(=O)C(NC(=O)COc2ccccc2)=CO1` (configuration not stated), the T/C is, setting by setting: under setting [8], 99 % of control; under setting [9], 88 % of control; under setting [10], 95 % of control.

`COC(=O)C(N)CCCCNc1ccc2c(cc1=O)C(NC(C)=O)CCc1cc(OC)c(OC)c(OC)c1-2` (configuration not stated): the T/C is, setting by setting: under setting [11], 119 % of control; (dose: 53.0 mg/kg/injection, schedule: Q01DX009 (ip), vehicle: saline) 117 % of control; (dose: 80.0 mg/kg/injection, schedule: Q01DX009 (ip), vehicle: saline) 117 % of control; (dose: 270.0 mg/kg/injection, schedule: Q01DX009 (ip), vehicle: saline) 150 % of control.

In the case of `Cc1noc(-c2ccc([N+](=O)[O-])o2)n1`, the T/C was 100 % of control (dose: 130.0 mg/kg/injection, schedule: Q01DX009 (ip), vehicle: Klucel (hydroxypropylcellulose) (HPC)) and 104 % of control (dose: 200.0 mg/kg/injection, schedule: Q01DX009 (ip), vehicle: Klucel (hydroxypropylcellulose) (HPC)).

Take `CC(Cl)C(=O)N/N=C(/c1ccccc1)C(C)(C)C` (configuration not stated): the T/C is 89 % of control under setting [12] and 86 % of control under setting [13].

As for `Cc1ncc(C(=O)O)c2c1OC(C)(C)OC2`, the T/C is 104 % of control under setting [8], 100 % of control under setting [9] and 98 % of control under setting [10].

With `O=C(O)/C(=C/c1ccc(/C=C(/C(=O)O)c2ccccc2)o1)c1ccccc1`, the T/C was 101 % of control (dose: 100.0 mg/kg/injection, schedule: Q01DX001 (ip), vehicle: saline with Tween-80); 97 % of control (dose: 200.0 mg/kg/injection, schedule: Q01DX001 (ip), vehicle: saline with Tween-80); 101 % of control (dose: 400.0 mg/kg/injection, schedule: Q01DX001 (ip), vehicle: saline with Tween-80).

Consider `S=P(C1CCCCC1)(C1CCCCC1)C(c1cccnc1)N1CCCC1` (configuration not stated), for which the T/C is 104 % of control under setting [2], 94 % of control under setting [3] and 87 % of control under setting [4].

Consider `COc1ccc(-c2cc3cc(OC)c(OC)cc3c[n+]2C)cc1OC`, for which the T/C under setting [14] is 96 % of control, the T/C under setting [15] is 94 % of control and the T/C under setting [16] is 104 % of control.

Regarding `C=Cc1ccc(Oc2ccccc2)cc1`, the T/C reads like this: under setting [14], 100 % of control; under setting [15], 95 % of control; under setting [16], 109 % of control.

Consider `CCCCCCCCCCCCCCCC(=O)N(C/C=C/CN(CCCN(C)C)C(=O)CCCCCCCCCCCCCCC)CCCN(C)C`, for which the T/C was 100 % of control under setting [17], 90 % of control under setting [18] and 90 % of control under setting [11].

Consider `CN1C(=O)N(C)C(O)(/C=C/c2c(Cl)cccc2Cl)N(C)C1=O`, for which the T/C is 106 % of control and 92 % of control under setting [11]; 94 % of control and 96 % of control under setting [12]; 93 % of control and 96 % of control under setting [13]; 89 % of control and 91 % of control under setting [19].

As for `CSc1nc(NC2OC(COC(C)=O)C(OC(C)=O)C(OC(C)=O)C2OC(C)=O)c(N=CC=Nc2c(NC3OC(COC(C)=O)C(OC(C)=O)C(OC(C)=O)C3OC(C)=O)nc(SC)n(C)c2=O)c(=O)n1C` (configuration not stated), the T/C reads like this: under setting [20], 89 % of control; under setting [21], 91 % of control.

As to `C/C(=N\NC(=S)N1CC2CCC(CC2)C1)c1nccs1`, the T/C is 124 % of control (dose: 12.5 mg/kg/injection, schedule: Q01DX005 (ip), vehicle: saline with Tween-80) and 154 % of control under setting [8].

Take `Cc1ccc(N(C(=O)c2ccc(Cl)cc2)C(=S)C#N)cc1`: the T/C under setting [22] was 89 % of control; the T/C under setting [23] is 95 % of control; the T/C (dose: 240.0 mg/kg/injection, schedule: Q01DX005 (ip), vehicle: Klucel + Tween-80) was 103 % of control.

On to `CCOC(=O)C(Br)CN1C(=O)c2ccccc2C1=O` (configuration not stated), for which the T/C under setting [20] was 97 % of control and the T/C under setting [21] was 115 % of control.

As for `COC1=C(N)C(=O)c2ncccc2C1=O`, the T/C by setting is: (dose: 3.12 mg/kg/injection, schedule: Q01DX009 (ip), vehicle: saline with Tween-80) 101 % of control; (dose: 4.0 mg/kg/injection, schedule: Q01DX009 (ip), vehicle: DMSO) 100 % of control; under setting [17], 95 % of control; (dose: 8.0 mg/kg/injection, schedule: Q01DX009 (ip), vehicle: DMSO) 108 % of control; under setting [18], 94 % of control; (dose: 16.0 mg/kg/injection, schedule: Q01DX009 (ip), vehicle: DMSO) 102 % of control.

On to `CO[C@@H]1[C@H](O)c2ccccc2N1C(C)=O`, for which the T/C is 102 % of control (dose: 60.0 mg/kg/injection, schedule: Q01DX005 (ip), vehicle: saline); 108 % of control (dose: 120.0 mg/kg/injection, schedule: Q01DX005 (ip), vehicle: saline); 101 % of control (dose: 240.0 mg/kg/injection, schedule: Q01DX005 (ip), vehicle: saline).

Consider `CC1CC(C(=O)O)N1` (configuration not stated), for which the T/C by setting is: (dose: 50.0 mg/kg/injection, schedule: Q01DX005 (ip), vehicle: saline) 101 % of control; (dose: 100.0 mg/kg/injection, schedule: Q01DX005 (ip), vehicle: saline) 98 % of control; (dose: 200.0 mg/kg/injection, schedule: Q01DX005 (ip), vehicle: saline) 97 % of control.

`Cn1/c2cc/c1=C(\c1ccc(S(=O)(=O)O)cc1)c1ccc([n-]1)/C(c1ccc(S(=O)(=O)O)cc1)=c1/cc/c([nH]1)=C(\c1ccc(S(=O)(=O)O)cc1)c1ccc([n-]1)/C=2c1ccc(S(=O)(=O)O)cc1.O.O=S(=O)(O)C(F)(F)F.[Cu+2]`: the T/C was 112 % of control under setting [18]; 121 % of control under setting [11]; 119 % of control under setting [12]; 92 % of control under setting [2]; 100 % of control under setting [3].

As to `CC(=O)SC12CCCN1C(=O)C1(SC(C)=O)CCCN1C2=O` (configuration not stated), the T/C by setting is: (dose: 6.25 mg/kg/injection, schedule: Q01DX009 (ip), vehicle: saline) 98 % of control; (dose: 12.5 mg/kg/injection, schedule: Q01DX009 (ip), vehicle: saline) 104 % of control; under setting [1], 104 % of control; under setting [2], 103 % of control; under setting [3], 111 % of control.

On to `COc1cc([N+](=O)[O-])c(OC)cc1Nc1ccccc1C(=O)O`, for which the T/C was 89 % of control under setting [22] and 90 % of control under setting [23].

With `Cc1ccc(S(=O)(=O)NC(=O)n2ccnc2C)cc1`, the T/C under setting [5] was 97 % of control, the T/C under setting [6] is 100 % of control and the T/C under setting [7] is 104 % of control.

In the case of `CCC(C)(CC)OC(N)=O`, the T/C is, setting by setting: under setting [11], 100 % of control; under setting [12], 91 % of control; under setting [13], 109 % of control; under setting [19], 105 % of control.
